Experimental data taken from US8952024B2, “Herbicidal pyrimidone derivatives” (E I du Pont de Nemours and Company, priority 2009, dated 2015).

What was measured:
Type in all cases: in vivo
[1] = test system: chickweed (Stellaria media); experiment: Test B postemergence plant response; conditions: for Chickweed plant response rating (0 to 100 scale): 62 g ai/ha, 0 is no effect, 13 to 15 days
Source text: (§1) At the same time, plants selected from these crop and weed species and also winter barley (Hordeum vulgare), canarygrass (Phalaris minor), chickweed (Stellaria media) and windgrass (Apera spica-venti) were planted in pots containing Redi-Earth® planting medium (Scotts Company, 14111 Scottslawn Road, Marysville, Ohio 43041) comprising spaghnum peat moss, vermiculite, wetting agent and starter nutrients and treated with postemergence applications of some of the test chemicals formulated in the same manner. Plants ranged in height from 2 to 18 cm (1- to 4-leaf stage) for postemergence treatments.
(§2) Treated plants and controls were maintained in a greenhouse for 13 to 15 days, after which time all treated plants were visually evaluated and compared to controls. Plant response ratings, summarized in Table B, are based on a scale of 0 to 100 where 0 is no effect and 100 is complete control. A dash (-) response means no test result.

[2] = test system: winter barley (Hordeum vulgare); experiment: Test B postemergence plant response; conditions: for Barley plant response rating (0 to 100 scale): 62 g ai/ha, 0 is no effect, 13 to 15 days
Source text: as §1, §2

[3] = test system: canarygrass (Phalaris minor); experiment: Test B postemergence plant response; conditions: for Canarygrass plant response rating (0 to 100 scale): 62 g ai/ha, 0 is no effect, 13 to 15 days
Source text: as §1, §2

[4] = test system: windgrass (Apera spica-venti); experiment: Test B postemergence plant response; conditions: for Windgrass plant response rating (0 to 100 scale): 62 g ai/ha, 0 is no effect, 13 to 15 days
Source text: as §1, §2

[5] = test system: morningglory (Ipomoea spp.); experiment: Test A pre-/postemergence plant response
How it was run: (§3)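 Greenhouse pots of loam/sand received directed preemergence soil sprays or postemergence sprays (plants 2–10 cm, 1–2 leaf stage), compounds formulated in non-phytotoxic solvent with surfactant. Injury was rated visually versus untreated controls after about ten days on a 0 (no effect) to 100 (complete control) scale.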

[6] = test system: wheat (Triticum aestivum); experiment: Test A pre-/postemergence plant response
How it was run: as §3

corn (Zea mays) = experiment: Test A pre-/postemergence plant response
How it was run: as §3

[7] = test system: giant foxtail (Setaria faberii); experiment: Test A pre-/postemergence plant response
How it was run: as §3

[8] = test system: velvetleaf (Abutilon theophrasti); experiment: Test A pre-/postemergence plant response
How it was run: as §3

[9] = test system: large crabgrass (Digitaria sanguinalis); experiment: Test A pre-/postemergence plant response
How it was run: as §3

[10] = 31 g ai/ha, postemergence, scale 0 to 100, 0 is no effect, 100 is complete control
[11] = postemergence, 100 is complete control
[12] = Postemergence, 125 g ai/ha, scale 0 to 100 (0 no effect, 100 complete control)
[13] = Postemergence, 250 g ai/ha, scale 0 to 100 (0 no effect, 100 complete control)
[14] = Postemergence, 125 g ai/ha, 0 to 100 scale where 0 is no effect and 100 is complete control
[15] = Postemergence, 500 g ai/ha, 0 to 100 scale, 0 = no effect, 100 = complete control, approx. ten days
[16] = Preemergence, 125 g ai/ha, 0 to 100 scale, 0 = no effect, 100 = complete control
[17] = Preemergence, 500 g ai/ha, visual injury, 0 to 100 scale (0 no effect, 100 complete control), approx. ten days
[18] = Postemergence, 125 g ai/ha, visual rating after 13 to 15 days, scale 0 (no effect) to 100 (complete control)

O=C1CCCC(O)=C1C(=O)c1cnc(-c2ccsc2)n(CC2CCCO2)c1=O (stereo not shown) [Compound 98]
Plant response rating, Chickweed [1, 10]: 80
Chickweed plant response rating (0 to 100 scale) [1, 11]: 80
Plant response rating, Chickweed [1, 12]: 98
Plant response rating, Chickweed [1, 13]: 100
Plant response rating, Barley [2, 10]: 0
Barley plant response rating (0 to 100 scale) [2, 11]: 5
Plant response rating, Barley [2, 12]: 10
Plant response rating, Barley [2, 13]: 15
Plant response rating, Canarygrass [3, 10]: 5
Canarygrass plant response rating (0 to 100 scale) [3, 11]: 20
Plant response rating, Canarygrass [3, 12]: 35
Plant response rating, Canarygrass [3, 13]: 50
Windgrass plant response rating (0 to 100 scale) [4, 11]: 20
Plant response rating, Windgrass [4, 12]: 50
Plant response rating, Windgrass [4, 13]: 70
Plant response rating, Morningglory [5, 14]: 100
Plant response rating, Morningglory [5, 15]: 100
Plant response rating, Morningglory [5, 16]: 70
Plant response rating, Morningglory [5, 17]: 80
Plant response rating, Wheat [6, 14]: 0
Plant response rating, Wheat [6, 15]: 20
Plant response rating, Wheat [6, 16]: 0
Plant response rating, Wheat [6, 17]: 0
Plant response rating, Corn (corn (Zea mays); [14]): 0
Plant response rating, Corn (corn (Zea mays); [15]): 60
Plant response rating, Corn (corn (Zea mays); [16]): 0
Plant response rating, Corn (corn (Zea mays); [17]): 0
Plant response rating, Foxtail, Giant [7, 14]: 70
Plant response rating, Foxtail, Giant [7, 15]: 90
Plant response rating, Foxtail, Giant [7, 16]: 40
Plant response rating, Foxtail, Giant [7, 17]: 80
Plant response rating, Velvetleaf [8, 14]: 100
Plant response rating, Velvetleaf [8, 15]: 100
Plant response rating, Velvetleaf [8, 16]: 90
Plant response rating, Velvetleaf [8, 17]: 100
Plant response rating, Crabgrass, Large [9, 14]: 90
Plant response rating, Crabgrass, Large [9, 15]: 100
Plant response rating, Crabgrass, Large [9, 16]: 90
Plant response rating, Crabgrass, Large [9, 17]: 100

O=C1CCCC(O)=C1C(=O)c1cnc(C2CC2)n(-c2ccccc2)c1=O [Compound 87]
Plant response rating, Chickweed [1, 10]: 100
Chickweed plant response rating (0 to 100 scale) [1, 11]: 100
Plant response rating, Chickweed [1, 18]: 100
Plant response rating, Chickweed [1, 13]: 100
Plant response rating, Barley [2, 10]: 0
Barley plant response rating (0 to 100 scale) [2, 11]: 0
Plant response rating, Barley [2, 18]: 0
Plant response rating, Barley [2, 13]: 5
Plant response rating, Canarygrass [3, 10]: 0
Canarygrass plant response rating (0 to 100 scale) [3, 11]: 30
Plant response rating, Canarygrass [3, 18]: 35
Plant response rating, Canarygrass [3, 13]: 35
Plant response rating, Windgrass [4, 10]: 55
Windgrass plant response rating (0 to 100 scale) [4, 11]: 60
Plant response rating, Windgrass [4, 13]: 95
Plant response rating, Morningglory [5, 14]: 90
Plant response rating, Morningglory [5, 15]: 100
Plant response rating, Morningglory [5, 16]: 50
Plant response rating, Morningglory [5, 17]: 80
Plant response rating, Wheat [6, 14]: 30
Plant response rating, Wheat [6, 15]: 60
Plant response rating, Wheat [6, 16]: 10
Plant response rating, Wheat [6, 17]: 40
Plant response rating, Corn (corn (Zea mays); [14]): 10
Plant response rating, Corn (corn (Zea mays); [15]): 50
Plant response rating, Corn (corn (Zea mays); [16]): 0
Plant response rating, Corn (corn (Zea mays); [17]): 0
Plant response rating, Foxtail, Giant [7, 14]: 70
Plant response rating, Foxtail, Giant [7, 15]: 90
Plant response rating, Foxtail, Giant [7, 17]: 80
Plant response rating, Velvetleaf [8, 14]: 100
Plant response rating, Velvetleaf [8, 15]: 100
Plant response rating, Velvetleaf [8, 16]: 100
Plant response rating, Velvetleaf [8, 17]: 100
Plant response rating, Crabgrass, Large [9, 14]: 90
Plant response rating, Crabgrass, Large [9, 15]: 90
Plant response rating, Crabgrass, Large [9, 17]: 100

O=C1CCCC(O)=C1C(=O)c1cnc(-c2ccccc2)n(C2CC2)c1=O [Compound 90]
Plant response rating, Chickweed [1, 10]: 70
Chickweed plant response rating (0 to 100 scale) [1, 11]: 80
Plant response rating, Chickweed [1, 18]: 85
Plant response rating, Chickweed [1, 13]: 90
Plant response rating, Barley [2, 10]: 0
Barley plant response rating (0 to 100 scale) [2, 11]: 5
Plant response rating, Barley [2, 18]: 10
Plant response rating, Barley [2, 13]: 20
Plant response rating, Canarygrass [3, 10]: 5
Canarygrass plant response rating (0 to 100 scale) [3, 11]: 10
Plant response rating, Canarygrass [3, 18]: 30
Plant response rating, Canarygrass [3, 13]: 30
Plant response rating, Windgrass [4, 10]: 0
Windgrass plant response rating (0 to 100 scale) [4, 11]: 5
Plant response rating, Windgrass [4, 13]: 50
Plant response rating, Morningglory [5, 14]: 100
Plant response rating, Morningglory [5, 15]: 100
Plant response rating, Morningglory [5, 16]: 0
Plant response rating, Morningglory [5, 17]: 70
Plant response rating, Wheat [6, 14]: 0
Plant response rating, Wheat [6, 15]: 40
Plant response rating, Wheat [6, 16]: 0
Plant response rating, Wheat [6, 17]: 0
Plant response rating, Corn (corn (Zea mays); [14]): 0
Plant response rating, Corn (corn (Zea mays); [15]): 20
Plant response rating, Corn (corn (Zea mays); [16]): 0
Plant response rating, Corn (corn (Zea mays); [17]): 0
Plant response rating, Foxtail, Giant [7, 14]: 70
Plant response rating, Foxtail, Giant [7, 15]: 80
Plant response rating, Foxtail, Giant [7, 16]: 30
Plant response rating, Foxtail, Giant [7, 17]: 60
Plant response rating, Velvetleaf [8, 14]: 100
Plant response rating, Velvetleaf [8, 15]: 100
Plant response rating, Velvetleaf [8, 16]: 70
Plant response rating, Velvetleaf [8, 17]: 100
Plant response rating, Crabgrass, Large [9, 14]: 80
Plant response rating, Crabgrass, Large [9, 15]: 90
Plant response rating, Crabgrass, Large [9, 16]: 60
Plant response rating, Crabgrass, Large [9, 17]: 100
